Measured values taken from patent US7910556B2, “PAR-2 agonist” (Kowa Company, Ltd., priority 2004, dated 2011).
Where two headings read alike, the source gives them in different places. Square brackets hold non-standard residues; d marks the D form. Ends that are not written are not given here. Peptide text beside a SMILES is read from it. * marks the point of attachment. Arg(NO2) = N=C(NCCC[C@H](N)C(=O)O)N[N+](=O)[O-]; NHCH2CH2(piperidin-1-yl) = C1CCN(CCN*)CC1; Benzofuran(2-CO) = O=C(c1cc2ccccc2o1)*; Imidazole4carbonyl = O=C(c1cnc[nH]1)*; Isoxazole(3-carbonyl) = O=C(c1ccon1)*; Cha = N[C@@H](CC1CCCCC1)C(=O)O; Nicotinoyl = O=C(c1cccnc1)*; Picolinoyl = O=C(c1ccccn1)*; 2Furoyl = O=C(c1ccco1)*; X1 = Cc1cc(C(=O)*)oc1C; X2 = O=C(c1ccc(Br)o1)*; Bz = O=C(c1ccccc1)*

T1: PAR-2 (Homo sapiens, UniProt P55085)
T1 sequence (P55085 26-397): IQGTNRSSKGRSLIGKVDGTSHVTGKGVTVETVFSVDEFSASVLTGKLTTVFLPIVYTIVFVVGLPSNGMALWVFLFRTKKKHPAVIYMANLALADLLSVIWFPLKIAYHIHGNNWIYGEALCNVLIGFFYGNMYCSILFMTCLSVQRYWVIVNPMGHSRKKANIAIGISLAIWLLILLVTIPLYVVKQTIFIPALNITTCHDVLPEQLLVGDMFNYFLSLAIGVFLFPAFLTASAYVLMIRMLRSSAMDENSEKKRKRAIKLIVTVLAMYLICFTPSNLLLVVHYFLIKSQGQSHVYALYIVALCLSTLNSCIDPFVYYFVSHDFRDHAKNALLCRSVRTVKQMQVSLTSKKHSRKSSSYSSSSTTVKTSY

T2: human PAR-2 (Protease-activated receptor-2) (human, UniProt P55085 37-397)
T2 sequence (looked up): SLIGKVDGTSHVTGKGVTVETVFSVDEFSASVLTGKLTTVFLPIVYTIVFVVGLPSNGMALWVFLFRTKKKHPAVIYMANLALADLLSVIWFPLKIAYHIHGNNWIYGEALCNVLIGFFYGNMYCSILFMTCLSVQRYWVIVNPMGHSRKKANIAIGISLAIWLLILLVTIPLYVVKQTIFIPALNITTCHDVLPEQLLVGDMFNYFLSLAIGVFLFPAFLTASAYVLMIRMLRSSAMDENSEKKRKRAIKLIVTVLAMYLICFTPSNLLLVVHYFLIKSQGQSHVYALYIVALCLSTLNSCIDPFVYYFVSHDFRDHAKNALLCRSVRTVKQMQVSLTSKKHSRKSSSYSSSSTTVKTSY


What was measured:
[1] = biological target: human PAR-2 (Protease-activated receptor-2) (human) (UniProt P55085); test: cell-based or functional assay
[2] = biological target: T1, PAR-2; test: Intracellular calcium dynamics assay (modified Hawthorne et al. method) in HCT-15 cells; assay type: cell-based; design: endogenous in cells; host or cells: HCT-15 human colorectal adenocarcinoma cells; details: for agonist activation compared with the comparative peptide SLIGKV-OH: HCT-15 cells, calcium assay, statement in words
From the text: The PAR-2 activation of peptide derivatives represented by the general formula (1) can be tested by known various methods. For example, PAR-2 activation of peptide derivates can be tested by the methods namely, “Hollenberg method” (Hollenberg, M. D., et al., Can. J. Physiol. Pharmacol., 75, 832-841 (1997)), “Kawabata et al. method” (Kawabata, A., et al., J. Pharmacol. Exp. Ther., 288, 358-370 (1999)), “Howthorne et al. method” (Howthorne et al., A High-Throughput Microtiter Plate-Based Calcium Assay for the Study of Protease-Activated Receptor 2 Activation, Analytical Biochemistry 290, 378-379 (2001)), and the like. The present inventors tested PAR-2 activation potency by the modified “Hawthorne et al. method”. More specifically the method is to assay intracellular calcium dynamic expressing human PAR-2 inherently. In this assay, under probenecid inhibiting anion-exchange transporter the inventors measured intracellular calcium dynamic mediated PAR-2 agonist(concentration variation) by a multiple-well plate reader wherein introducing Ca^2+ sensitive fluorescent dye and stimulating this cell by PAR-2 agonist.
This method is explained below in more detail.
Thereafter, the cells were stimulated with various concentration test compounds and measured at an excitation wavelength of 485 nm and at a measurement wavelength of 525 nm (cut-off 515 nm) with a fluorometer scanning a multiple well (Flex Station, Molecular Devices). As a comparative compound, SLIGKV-OH which is a known PAR-2 activated peptide was used.

[3] = biological target: T1, PAR-2; details: relative to TRAP (tethered receptor agonist peptide); cited from earlier work
[4] = biological target: T2, human PAR-2 (Protease-activated …); test: cell-based or functional assay

| Molecule | Agonist activity (EC50, µM); intracellular calcium, HCT-15 cells [1] | EC50 [2] | also measured |
| --- | --- | --- | --- |
| 2-furoyl-L-phenylalanyl-glycyl-glycyl-β-cyclohexyl-L-alanine 2-(1-piperidinyl)ethyl amide (peptide) | 2.9 µM |  |  |
| 2-furoyl-β-cyclohexyl-L-alanyl-glycyl-glycyl-β-cyclohexyl-L-alanine 2-(1-piperidinyl)ethyl amide (peptide) | 16.5 µM |  |  |
| 4,5-dimethyl-2-furoyl-β-cyclohexyl-L-alanyl-glycyl-glycyl-β-cyclohexyl-L-alanine 2-(1-piperidinyl)ethyl amide (peptide) | 16.5 µM |  |  |
| 5-bromo-2-furoyl-β-cyclohexyl-L-alanyl-glycyl-glycyl-β-cyclohexyl-L-alanine 2-(1-piperidinyl)ethyl amide (peptide) | 0.7 µM |  |  |
| O=C(CNC(=O)[C@H](CC1CCCCC1)NC(=O)c1ccco1)NCC(=O)N[C@@H](CC1CCCCC1)C(=O)NCCN1CCCCC1 [Example 1, 2-furoyl-β-cyclohexyl-L-alanyl-glycyl-glycyl-β-cyclohexyl-L-alanyine 2-(1-piperidinyl)ethyl amide] (2Furoyl-[Cha]GG[Cha]-{NHCH2CH2(piperidin-1-yl)}) |  | 16.5 ± 3.4 µM | agonist activation compared with the comparative peptide SLIGKV-OH [2]: almost same as the comparative peptide |
| O=C(CNC(=O)[C@H](Cc1ccccc1)NC(=O)c1ccco1)NCC(=O)N[C@@H](CC1CCCCC1)C(=O)NCCN1CCCCC1 [Example 2, 2-furoyl-L-phenylalanyl-glycyl-glycyl-β-cyclohexyl-L-alanine 2-(1-piperidinyl)ethyl amide] (2Furoyl-FGG[Cha]-{NHCH2CH2(piperidin-1-yl)}) |  | 2.9 ± 0.6 µM |  |
| O=C(CNC(=O)[C@H](CC1CCCCC1)NC(=O)c1ccc(Br)o1)NCC(=O)N[C@@H](CC1CCCCC1)C(=O)NCCN1CCCCC1 [Example 3, 5-bromo-2-furoyl-β-cyclohexyl-L-alanyl-glycyl-glycyl-β-cyclohexyl-L-alanine 2-(1-piperidinyl)ethyl amide] (X2-[Cha]GG[Cha]-{NHCH2CH2(piperidin-1-yl)}) |  | 0.7 ± 0.2 µM |  |
| O=C(CNC(=O)[C@H](CC1CCCCC1)NC(=O)c1cccnc1)NCC(=O)N[C@@H](CC1CCCCC1)C(=O)NCCN1CCCCC1 [Example 4, nicotinoyl-β-cyclohexyl-L-alanyl-glycyl-glycyl-β-cyclohexyl-L-alanine 2-(1-piperidinyl)ethyl amide] (Nicotinoyl-[Cha]GG[Cha]-{NHCH2CH2(piperidin-1-yl)}) |  | 1.6 ± 0.1 µM |  |
| O=C(CNC(=O)[C@H](CC1CCCCC1)NC(=O)c1cc2ccccc2o1)NCC(=O)N[C@@H](CC1CCCCC1)C(=O)NCCN1CCCCC1 [Example 5, benzofuran-2-carbonyl-β-cyclohexyl-L-alanyl-glycyl-glycyl-β-cyclohexyl-L-alanine 2-(1-piperidinyl)ethyl amide] ({Benzofuran(2-CO)}-[Cha]GG[Cha]-{NHCH2CH2(piperidin-1-yl)}) |  | 0.8 ± 0.2 µM |  |
| O=C(CNC(=O)[C@H](CC1CCCCC1)NC(=O)c1ccon1)NCC(=O)N[C@@H](CC1CCCCC1)C(=O)NCCN1CCCCC1 [Example 6, isoxazole-3-carbonyl-β-cyclohexyl-L-alanyl-glycyl-glycyl-β-cyclohexyl-L-alanine 2-(1-piperidinyl)ethyl amide] ({Isoxazole(3-carbonyl)}-[Cha]GG[Cha]-{NHCH2CH2(piperidin-1-yl)}) |  | 6.6 ± 3.1 µM |  |
| O=C(CNC(=O)[C@H](CC1CCCCC1)NC(=O)c1ccccn1)NCC(=O)N[C@@H](CC1CCCCC1)C(=O)NCCN1CCCCC1 [Example 7, picolinoyl-β-cyclohexyl-L-alanyl-glycyl-glycyl-β-cyclohexyl-L-alanine 2-(1-piperidinyl)ethyl amide] (Picolinoyl-[Cha]GG[Cha]-{NHCH2CH2(piperidin-1-yl)}) |  | 7.6 ± 2.6 µM |  |
| Cc1cc(C(=O)N[C@@H](CC2CCCCC2)C(=O)NCC(=O)NCC(=O)N[C@@H](CC2CCCCC2)C(=O)NCCN2CCCCC2)oc1C [Example 8, 4,5-dimethyl-2-furoyl-β-cyclohexyl-L-alanyl-glycyl-glycyl-β-cyclohexyl-L-alanine 2-(1-piperidinyl)ethyl amide] (X1-[Cha]GG[Cha]-{NHCH2CH2(piperidin-1-yl)}) |  |  | agonist activation compared with the comparative peptide SLIGKV-OH [2]: almost same as the comparative peptide; EC50 ([2]; HCT-15 human colorectal adenocarcinoma cells expressing PAR-2 inherently, Ca2+ sensitive fluorescent dye, 2.5 mM probenecid, read-out: Agonist activity (EC50)): 16.5 ± 2.1 µM |
| O=C(CNC(=O)[C@H](CC1CCCCC1)NC(=O)c1cnc[nH]1)NCC(=O)N[C@@H](CC1CCCCC1)C(=O)NCCN1CCCCC1 [Example 9, imidazole-4-carbonyl-β-cyclohexyl-L-alanyl-glycyl-glycyl-β-cyclohexyl-L-alanine 2-(1-piperidinyl)ethyl amide] (Imidazole4carbonyl-[Cha]GG[Cha]-{NHCH2CH2(piperidin-1-yl)}) |  | 14.9 ± 1.3 µM | agonist activation compared with the comparative peptide SLIGKV-OH [2]: almost same as the comparative peptide |
| CC(C)C[C@H](NC(=O)[C@H](CCCNC(=N)N[N+](=O)[O-])NC(=O)c1ccccc1)C(N)=O [N^60-benzoyl-Arg(NO2)-Leu-NH2] (Bz-[Arg(NO2)]-Leu-NH2) |  |  | PAR-2 activation, action strength relative to TRAP [3]: about one of hundred action strength of TRAP |
| benzofuran-2-carbonyl-β-cyclohexyl-L-alanyl-glycyl-glycyl-β-cyclohexyl-L-alanine 2-(1-piperidinyl)ethyl amide (peptide) | 0.8 µM |  |  |
| imidazole-4-carbonyl-β-cyclohexyl-L-alanyl-glycyl-glycyl-β-cyclohexyl-L-alanine 2-(1-piperidinyl)ethyl amide (peptide) | 14.9 µM |  |  |
| isoxazole-3-carbonyl-β-cyclohexyl-L-alanyl-glycyl-glycyl-β-cyclohexyl-L-alanine 2-(1-piperidinyl)ethyl amide (peptide) | 6.6 µM |  |  |
| nicotinoyl-β-cyclohexyl-L-alanyl-glycyl-glycyl-β-cyclohexyl-L-alanine 2-(1-piperidinyl)ethyl amide (peptide) | 1.6 µM |  |  |
| picolinoyl-β-cyclohexyl-L-alanyl-glycyl-glycyl-β-cyclohexyl-L-alanine 2-(1-piperidinyl)ethyl amide (peptide) | 7.6 µM |  |  |
| SLIGKV-OH [SLIGKV-OH (Ser-Leu-Ile-Gly-Lys-Val-OH)] |  |  | Agonist activity (EC50, µM); intracellular calcium, HCT-15 cells [4]: 15.6 µM |
